Source: ChEMBL document CHEMBL1140822, “Prodrug thiamine analogs as inhibitors of the enzyme transketolase” (Bioorg Med Chem Lett, 2008)
Active and inactive are the calls of the source. The calls are words filed in the database; no cut-off is given here.

Assays:
Transketolase = target: T1, Transketolase (Homo sapiens, UniProt P29401); assay: Inhibition of transketolase in human HCT116 cells; format: cell-based, HCT-116
T1 sequence (P29401 whole entry): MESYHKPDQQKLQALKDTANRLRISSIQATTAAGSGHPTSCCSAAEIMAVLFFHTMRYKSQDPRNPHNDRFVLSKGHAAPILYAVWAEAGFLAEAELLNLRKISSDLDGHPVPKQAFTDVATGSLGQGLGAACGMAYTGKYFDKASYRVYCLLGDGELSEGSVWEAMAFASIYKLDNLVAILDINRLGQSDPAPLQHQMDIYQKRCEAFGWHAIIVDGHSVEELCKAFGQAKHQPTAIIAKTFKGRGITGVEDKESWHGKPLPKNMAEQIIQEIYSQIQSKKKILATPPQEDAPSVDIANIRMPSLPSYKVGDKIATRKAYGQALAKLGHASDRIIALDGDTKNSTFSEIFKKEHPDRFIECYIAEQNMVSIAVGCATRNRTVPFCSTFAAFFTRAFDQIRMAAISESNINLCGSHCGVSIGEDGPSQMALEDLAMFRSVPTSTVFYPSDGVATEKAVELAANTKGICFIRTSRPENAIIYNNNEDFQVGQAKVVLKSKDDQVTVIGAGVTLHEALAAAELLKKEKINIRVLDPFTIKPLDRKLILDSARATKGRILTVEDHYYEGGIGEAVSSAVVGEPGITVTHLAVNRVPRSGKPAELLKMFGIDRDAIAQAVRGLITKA

[1] = Cmax in rat at 3 mg/kg, iv; format: ADME, organism-based; design: dose 3 mg/kg, route intravenous; settings: in vivo
[2] = AUC in rat at 3 mg/kg, iv; format: ADME, organism-based; design: dose 3 mg/kg, route intravenous; settings: plasma
[3] = Clearance in rat at 3 mg/kg, iv; format: ADME, organism-based; design: dose 3 mg/kg, route intravenous; settings: in vivo
[4] = Mean residence time in rat at 3 mg/kg, iv; format: ADME, organism-based; design: dose 3 mg/kg, route intravenous; settings: in vivo
[5] = Volume of distribution at steady state in rat at 3 mg/kg, iv; format: ADME, organism-based; design: dose 3 mg/kg, route intravenous; settings: in vivo, read-out: Vdss
Mus musculus = assay: Inhibition of transketolase in BALB/c mouse blood at 100 mg/kg, ip after 72 hrs; format: functional, organism-based; design: dose 100 mg/kg

Row | SMILES | EC50 (Transketolase) | other results
1 | C/C(=C(\CCOC(=O)c1ccccc1)SC(=O)c1ccccc1)N(C=O)Cc1ccc(C)nc1N | 28 nM | –
2 | CC(=O)N(Cc1ccc(C)nc1N)/C(C)=C(/CCO)SS/C(CCO)=C(/C)N(Cc1ccc(C)nc1N)C(C)=O | 32 nM | –
3 | Cc1c(CCO)sc[n+]1Cc1ccc(Cl)nc1N | 9 nM | –
4 | C/C(=C(\CCO)SCOC(=O)C(C)(C)C)N(C=O)Cc1ccc(C)nc1N | 116 nM | Cmax [1]: 3020 ng/mL; AUC [2]: 79200 ng·h/mL; clearance [3]: 0.63 mL/min/kg; MRT [4]: 48.3 h; Vd [5]: 1.83 L/kg
5 | CC(=O)OCC/C(SC(C)=O)=C(\C)N(C=O)Cc1ccc(C)nc1N | 8 nM | –
6 | Cc1ccc(C[n+]2csc(CCO)c2)c(N)n1 | 9540 nM | –
7 | C/C(=C1\CCOC(=O)S1)N(C=O)Cc1ccc(C)nc1N | 15 nM | –
8 | C/C(=C(\CCO)SS/C(CCO)=C(/C)N(C=O)Cc1ccc(C)nc1N)N(C=O)Cc1ccc(C)nc1N | 12 nM | Cmax [1]: 1120 ng/mL; AUC [2]: 1590 ng·h/mL; clearance [3]: 32.5 mL/min/kg; MRT [4]: 12.7 h; Vd [5]: 19.3 L/kg; Activity (Mus musculus): Active
9 | CCCCS/C(CCO)=C(/C)N(C=O)Cc1ccc(C)nc1N | 6000 nM | –
10 | Cc1ccc(C[n+]2csc(CCO)c2C)c(N)n1.[Cl-] | 18 nM | Cmax [1]: 6610 ng/mL; AUC [2]: 1250 ng·h/mL; clearance [3]: 41.3 mL/min/kg; MRT [4]: 0.72 h; Vd [5]: 1.98 L/kg
11 | Cc1c(CCO)sc[n+]1Cc1cccnc1N | 110 nM | –
12 | Cc1ccc(CN(C=O)/C=C(/CCO)SS/C(=C\N(C=O)Cc2ccc(C)nc2N)CCO)c(N)n1 | 102000 nM | –
13 | C/C(=C(\CCO)SSCCC(=O)O)N(C=O)Cc1ccc(C)nc1N | 52 nM | –
14 | C/C(=C(\CCO)SSCCO)N(C=O)Cc1ccc(C)nc1N | 13 nM | –
15 | C/C(=C(\CCO)SS/C(CCO)=C(/C)N(C=O)Cc1ccc(Cl)nc1N)N(C=O)Cc1ccc(Cl)nc1N | 8 nM | –
16 | C/C(=C(\CCO)SS/C(CCO)=C(/C)N(C=O)Cc1cccnc1N)N(C=O)Cc1cccnc1N | 479 nM | –
17 | Cc1ccc(C[n+]2c(C)sc(CCO)c2C)c(N)n1 | 28 nM | –
